Measured values taken from ChEMBL document CHEMBL3098005, “Structure activity relationships of fused bicyclic and urea derivatives of spirocyclic compounds as potent CCR1 antagonists” (Bioorg Med Chem Lett, 2014).

Assays:
[1] = Metabolic stability in human liver microsomes; assay type: ADME; details: read-out: Stability
[2] = molecular target: T1, C-C chemokine receptor type 1 (Homo sapiens, UniProt P32246); test: Displacement of [125I]MIP-1alpha from human recombinant CCR1 expressed in HEK293 cell membranes after 1.5 hrs by microbeta counting analysis
T1 sequence (P32246 whole entry): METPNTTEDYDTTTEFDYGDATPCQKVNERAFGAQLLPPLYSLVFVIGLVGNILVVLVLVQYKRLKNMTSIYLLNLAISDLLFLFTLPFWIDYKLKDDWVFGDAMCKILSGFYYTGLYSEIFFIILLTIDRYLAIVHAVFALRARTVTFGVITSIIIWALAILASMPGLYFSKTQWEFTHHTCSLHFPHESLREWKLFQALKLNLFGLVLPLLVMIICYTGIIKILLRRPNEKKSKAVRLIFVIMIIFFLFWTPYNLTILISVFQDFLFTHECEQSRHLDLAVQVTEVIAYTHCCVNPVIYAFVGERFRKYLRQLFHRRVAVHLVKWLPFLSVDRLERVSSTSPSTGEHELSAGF

[3] = Permeability across human Caco2 cells; assay type: ADME, cell-based; details: Caco-2, read-out: permeability
[4] = molecular target: T2, C-C chemokine receptor type 1 (Rattus norvegicus, UniProt A6I4C9); test: Displacement of [125I]MIP-1alpha from rat CCR1
T2 sequence (A6I4C9 whole entry): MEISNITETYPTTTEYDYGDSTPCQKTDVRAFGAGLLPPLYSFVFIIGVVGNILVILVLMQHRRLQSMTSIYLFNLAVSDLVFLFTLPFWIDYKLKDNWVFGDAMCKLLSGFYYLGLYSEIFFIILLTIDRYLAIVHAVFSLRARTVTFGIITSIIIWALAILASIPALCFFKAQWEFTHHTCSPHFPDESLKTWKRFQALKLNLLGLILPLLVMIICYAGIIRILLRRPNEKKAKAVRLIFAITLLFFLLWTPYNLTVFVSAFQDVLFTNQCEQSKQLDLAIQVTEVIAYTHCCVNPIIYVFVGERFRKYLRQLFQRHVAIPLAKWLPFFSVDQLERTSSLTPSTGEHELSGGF

Hepatocyte = test: Metabolic stability in human hepatocytes measured per 10^6 cells; assay type: ADME, cell-based
[5] = molecular target: Voltage-gated inwardly rectifying potassium channel KCNH2 (Homo sapiens, UniProt Q12809); test: Inhibition of human ERG expressed in HEK cells after 3 hrs by ion flux electrophysiology
Chain of Voltage-gated inwardly rectifying potassium channel KCNH2 (Q12809 whole entry): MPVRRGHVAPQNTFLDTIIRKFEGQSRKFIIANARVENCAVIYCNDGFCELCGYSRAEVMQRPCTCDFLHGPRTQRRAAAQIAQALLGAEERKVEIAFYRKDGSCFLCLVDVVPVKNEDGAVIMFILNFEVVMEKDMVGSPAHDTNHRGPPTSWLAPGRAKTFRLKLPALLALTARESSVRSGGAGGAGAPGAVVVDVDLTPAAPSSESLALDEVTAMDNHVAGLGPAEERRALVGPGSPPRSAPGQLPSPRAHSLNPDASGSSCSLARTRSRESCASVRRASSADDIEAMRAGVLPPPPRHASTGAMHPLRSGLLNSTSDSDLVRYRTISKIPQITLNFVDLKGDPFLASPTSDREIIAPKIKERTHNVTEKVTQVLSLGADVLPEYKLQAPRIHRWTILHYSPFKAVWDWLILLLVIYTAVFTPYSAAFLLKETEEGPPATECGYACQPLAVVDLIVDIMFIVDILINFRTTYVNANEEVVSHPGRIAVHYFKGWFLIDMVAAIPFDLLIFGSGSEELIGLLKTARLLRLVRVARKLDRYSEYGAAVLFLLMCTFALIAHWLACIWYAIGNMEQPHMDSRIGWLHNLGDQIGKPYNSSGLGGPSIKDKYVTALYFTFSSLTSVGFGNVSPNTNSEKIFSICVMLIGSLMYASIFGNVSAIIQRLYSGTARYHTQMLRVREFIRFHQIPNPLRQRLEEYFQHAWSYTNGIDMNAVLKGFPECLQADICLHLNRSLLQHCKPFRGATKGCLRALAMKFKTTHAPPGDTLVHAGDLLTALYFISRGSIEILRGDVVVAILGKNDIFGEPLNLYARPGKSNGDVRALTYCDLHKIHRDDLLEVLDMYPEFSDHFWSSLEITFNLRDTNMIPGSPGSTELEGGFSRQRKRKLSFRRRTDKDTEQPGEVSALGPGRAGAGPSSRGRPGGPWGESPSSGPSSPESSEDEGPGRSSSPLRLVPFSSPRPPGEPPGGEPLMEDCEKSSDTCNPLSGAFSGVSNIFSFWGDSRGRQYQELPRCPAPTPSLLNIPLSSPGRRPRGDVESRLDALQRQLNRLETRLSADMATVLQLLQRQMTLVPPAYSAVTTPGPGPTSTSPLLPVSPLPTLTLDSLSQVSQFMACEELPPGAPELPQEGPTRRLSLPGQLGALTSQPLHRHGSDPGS

| microsomal CLint [1] [µL/min/mg] | IC50 [2] [nM] | Papp [3] [×10⁻⁶ cm/s] | IC50 ([4]; read-out: IC50) [nM] | Stability (Hepatocyte) | IC50 [4] | SMILES | IC50 [5] [nM] |
| --- | --- | --- | --- | --- | --- | --- | --- |
| > 200 | 1.4 | 3.5 | – | – | – | O=C(Nc1ccccc1OC[C@@H](O)CN1CCC2(CC1)Cc1cc(Cl)ccc1O2)N1CCCC1 | – |
| 71.2 | 4.5 | – | 447 | – | – | CNC(=O)Nc1ccc(OC)cc1OC[C@@H](O)CN1CCC2(CC1)Cc1cc(Cl)ccc1O2 | – |
| < 10 | 1.3 | 9 | 1760 | 5.4 µL/min | – | CNC(=O)Nc1ccc(O)cc1OC[C@@H](O)CN1CCC2(CC1)Cc1cc(Cl)ccc1O2 | 4600 |
| < 11.4 | 1.8 | – | 16 | 20.7 µL/min | – | O=C(Nc1cc(Cl)c(O)cc1OC[C@@H](O)CN1CCC2(CC1)Cc1cc(Cl)ccc1O2)NC1CC1 | 1000 |
| 114 | 1.8 | – | 50 | – | – | COc1ccc(NC(=O)NC2CC2)c(OC[C@@H](O)CN2CCC3(CC2)Cc2cc(Cl)ccc2O3)c1 | – |
| < 10 | 0.89 | 2.67 | 50 | 6.4 µL/min | – | O=C(Nc1ccc(O)cc1OC[C@@H](O)CN1CCC2(CC1)Cc1cc(Cl)ccc1O2)NC1CC1 | – |
| 133 | 2.2 | – | 90 | – | – | COc1ccc(NC(=O)NC2CC2)c(OC[C@@H](O)CN2CCC3(CC2)Cc2cc(F)ccc2O3)c1 | – |
| 15.1 | 0.63 | 0.93 | 101 | 5.3 µL/min | – | O=C(Nc1ccc(O)cc1OC[C@@H](O)CN1CCC2(CC1)Cc1cc(F)ccc1O2)NC1CC1 | 3800 |
| < 10 | 3.2 | 0.5 | 1580 | < 3.8 µL/min | – | NC(=O)Nc1ccc(O)cc1OC[C@@H](O)CN1CCC2(CC1)Cc1cc(Cl)ccc1O2 | > 8900 |
| 21.5 | 6.7 | 14 | 2110 | < 3 µL/min | – | NC(=O)Nc1ccccc1OC[C@@H](O)CN1CCC2(CC1)Cc1cc(Cl)ccc1O2 | 400 |
| 17 | 5.6 | 16 | 1620 | 5.7 µL/min | – | NC(=O)Nc1ccc(F)cc1OC[C@@H](O)CN1CCC2(CC1)Cc1cc(Cl)ccc1O2 | – |
| 33.7 | 7.1 | 11 | 1260 | 7.8 µL/min | – | O=C1COc2cccc(OC[C@@H](O)CN3CCC4(CC3)Cc3cc(Cl)ccc3O4)c2N1 | 600 |
| 65 | 32 | 16 | – | Unstable | Not Active | O=C1CCc2cccc(OC[C@@H](O)CN3CCC4(CC3)Cc3cc(Cl)ccc3O4)c2N1 | 500 |
| 12.5 | 37 | – | – | Unstable | Not Active | O=c1ccc2cccc(OC[C@@H](O)CN3CCC4(CC3)Cc3cc(Cl)ccc3O4)c2[nH]1 | – |
| – | 560 | – | > 6000 | – | – | O=c1[nH]c(=O)c2cccc(OC[C@@H](O)CN3CCC4(CC3)Cc3cc(Cl)ccc3O4)c2[nH]1 | – |
| 15 | 160 | – | – | – | Not Active | Cc1cc2c(OC[C@@H](O)CN3CCC4(CC3)Cc3cc(Cl)ccc3O4)cccc2o1 | – |
| – | 1300 | – | – | – | Not Active | Nc1nc2c(OC[C@@H](O)CN3CCC4(CC3)Cc3cc(Cl)ccc3O4)cccc2s1 | – |
| – | 1300 | – | – | – | Not Active | Cc1nc2c(OC[C@@H](O)CN3CCC4(CC3)Cc3cc(Cl)ccc3O4)cccc2s1 | – |
| < 10 | 79 | – | – | – | Not Active | N[C@H](COc1cccc2c1NC(=O)CO2)CN1CCC2(CC1)Cc1cc(F)ccc1O2 | – |
| < 10 | 560 | – | – | – | Not Active | N[C@H](COc1cccc2ccc(=O)[nH]c12)CN1CCC2(CC1)Cc1cc(F)ccc1O2 | 1200 |
| 87.9 | 13 | – | 1780 | – | – | CNC(=O)Nc1ccc(OC)cc1OC[C@@H](O)CN1CCC2(CC1)Cc1cc(F)ccc1O2 | – |
| < 10 | 3.2 | – | – | 10.7 µL/min | – | CNC(=O)Nc1ccc(O)cc1OC[C@@H](O)CN1CCC2(CC1)Cc1cc(F)ccc1O2 | 13100 |
